Data as given in US8236339B2, “Therapeutic delivery of carbon monoxide” (priority 2001, dated 2012).
Marks after values point to notes of the source that are not given here.

Key:
RAW 264.7 macrophages [1] = conditions: 24 h, LPS 3 μg/ml with or without CO-RM-3 10, 50 and 100 μM
Method: Mouse RAW 264.7 macrophages were cultured in 24 wells using DMEM medium Confluent cells were incubated for 24 h with E. Coli lipopolysaccharide (LPS, 3 μg/ml) in the presence or absence of increasing concentrations of CO-RM-3 (10, 50 and 100 μM). Control cells were exposed to culture medium alone. […] Cell viability was also assessed in macrophages 24 h after treatment with the various agents as described in reference 47.

[2] = Systemic blood pressure and heart rate in anaesthetised Sprague-Dawley rats; assay type: in vivo, rat
Method: Adult male Sprague-Dawley rats (280-350 g, 8-10 weeks of age) were bred in-house at the Northwick Park Institute for Medical Research (Harrow, UK). Rats were housed in groups of 3 in cages under a 12 h cycle of day/night, with free access to drinking water and fed ad libitum. All surgical procedures were performed in compliance with U.K. Home Office regulations. Rats were anaesthetised in a polycarbonate chamber in a stream of Enflurane™ (Abbot, UK) in oxygen before being transferred onto a mask and continuously supplied with Enflurane™ throughout the experiment with an anaesthetic machine (Aimed, UK). During the surgical procedure the rats were kept at a constant body temperature of 37° C. using a heat pad positioned underneath the operating surface. Specially designed femoral artery and venous catheters were then surgically implanted as previously described (see ref. 40). The catheter in the artery was connected via a luer connector and a three-way tap to a pressure transducer (Gould model P23ID, Statham, USA) for continuous mean arterial pressure (MAP) and heart rate (HR) monitoring. A purpose-built tail-cuff pressure transducer (ADInstruments, UK) was also placed on the tail of the rat and pressure transducer and tail cuff were connected to a polygraph recorder (Grass, Model 7D, Astra-med, UK) pre-calibrated in millimeters of mercury (mmHg). An analogue output provided data for a computer-based data acquisition system (PowerLab™, ADInstruments, UK). The computer-based system was set to record mean arterial pressure (MAP), in mmHg, and heart rate (HR), in beats/min (bpm), for the duration of the experiment. […] Once a stable pressure had been reached, each catheter was flushed with saline containing heparin and no further changes were made to the anaesthetic supply. Ru(CO)3Cl(glycinato) (CO-RM-3) was prepared in stock solutions of 20, 60 and 120 μmoles·ml^−1 by solubilizing the compound in saline. […] CO-RM-3 (or the negative control) was then infused into the animal via the femoral vein catheter as a bolus so that the final concentration infused was 10, 30 or 60 μmoles·kg^−1 body weight. Throughout the experiment MAP and HR were continuously recorded and monitored. Although concentrations of 10, 30 and 60 μmoles·kg^−1 were infused into each animal, the resulting concentrations in the animal were cumulative. Therefore, the final concentration attained in the animal was 10, 40 and 100 μmoles·kg^−1, respectively.
The results are presented in Table 2, where the data shown represents samples taken at baseline (just before infusion of the compound) and directly after administration of 10, 30 and 60 μmoles·kg^−1 of the compound. All data are mean i SEM. n=3 independent experiments. *P<0.05 vs. baseline.

RAW 264.7 macrophages [3] = assay: Nitrite (NO) production in LPS-stimulated macrophages, Griess reagent method; assay type: cell-based, mouse; conditions: 10, 50 and 100 μM, 24 h with LPS 3 μg/ml
Text: Control cells were exposed to culture medium alone.

[4] = Cardiac transplant rejection, BALB/c hearts into CBA mice; assay type: in vivo, mouse; conditions: 40 mg/kg i.p. doses
Method: Hearts from male BALB/c mouse (25-30 g) were used as donor organs for transplantation into male CBA mice (25-30 g). Mice were housed in groups of 3 in cages under a 12 h cycle of day/night, with free access to drinking water and fed ad libitum. All surgical procedures were performed in compliance with U.K. Home Office regulations. Animals were anaesthetized by an intraperitoneal injection of ketamine/xylazine during all procedures. The surgical technique involved the transplantation of the cardiac allograft into the recipient's neck as previously described (51). Graft survival was assessed daily by palpation, and rejection was diagnosed by cessation of ventricular contractions.
Ru(CO)3Cl(glycinato) was dissolved in 0.1 ml saline and administered intraperitoneally. All doses are 40 mg/kg of Ru(CO)3Cl(glycinato). The donors received two doses of Ru(CO)3Cl(glycinato) respectively at 1 day and 15 min prior to cardiac harvest. The recipients received doses of Ru(CO)3Cl(glycinato) at 1 day before surgery, 30 min prior to cardiac reperfusion and 1 h after transplantation (Day 0). Thereafter, graft recipients received a daily dose of Ru(CO)3Cl(glycinato) from day 1 to day 8(inclusive) post-transplant. In the control group, recipients received an equivalent dose of saline (vehicle) 1 day before and each day (days 1 to 8) after cardiac transplantation. Carprofen (0.01 mg) was given subcutaneously for pain relief immediately after transplantation to all animals. The results of this study are shown in FIG. 10. n=5 for each group. *p<0.002 vs. control. BALE/c hearts transplanted into CBA mice following treatment with saline (control group) underwent rejection'very rapidly. 100% of hearts stopped beating within 9 days of transplantation.

[5] = system: deoxymyoglobin (deoxy-Mb); assay: Myoglobin assay: conversion of deoxy-Mb to MbCO on direct addition of metal carbonyl; assay type: biochemical, horse; conditions: direct addition to myoglobin solution (66 μM), no light
Method: The release of CO from metal carbonyl complexes was assessed spectrophotometrically by measuring the conversion of deoxymyoglobin (deoxy-Mb) to carbonmonoxy myoglobin (MbCO). MbCO has a distinctive absorption spectrum between 500 and 600 nm, and changes at 540 nm were used to quantify the amount of CO liberated. Myoglobin solutions (66 μM final concentration) were prepared freshly by dissolving the protein in 0.04 M phosphate buffer (pH 6.8). Sodium dithionite (0.1%) was added to convert myoglobin to deoxy-Mb prior to each reading. All the spectra were measured using a Helios a spectrophotometer.
Various metal carbonyl complexes were tested for their ability to elicit MbCO formation when added directly to a deoxy-Mb solution. To different extents, [Ru(CO)3Cl2]2, [Ru(CO)2(DMSO)2Cl2], [Ru(CO)3Cl2(cytosine)] and […] all released CO when added directly to the Mb solution.
The metal carbonyl complex was solubilized in DMSO (9.7 mM stock solution), aliquots of 2 to 32 μl were added directly to 1 ml of deoxy-Mb solutions (66 μM) and absorption spectrum determined immediately after mixing the samples by inversion.

[6] = system: aortic rings pre-contracted with phenylephrine; assay: Relaxation of isolated aortic rings pre-contracted with phenylephrine; set-up: species or system rat
Method: Transverse ring sections of thoracic aorta were isolated from male Lewis rats and suspended under a 2 g tension in an organ bath containing oxygenated Krebs-Henseleit buffer at 37° C. as previously described (23). The relaxation response to cumulative doses of metal carbonyl (dissolved in DMSO—see section 2) was assessed in aortic rings pre-contracted with phenylephrine (3 μM). Control rings were similarly treated by adding equal doses of DMSO (vehicle) to the organ bath.

[7] = directly after i.v. bolus 10 μmol/kg
[8] = directly after i.v. bolus 30 μmol/kg (cumulative 40)
[9] = cumulative doses, phenylephrine 3 μM

With NCC(=O)O.[C-]#[O+].[C-]#[O+].[C-]#[O+].[Cl][Ru] [CO-RM-3, Ru(CO)3Cl (NH2CH2CO2)] the “cell viability of macrophages” value (RAW 264.7 macrophages [1]) was “did not affect cell viability”, the “transient decrease in MAP” value ([2]; 10 μmoles·kg^−1 bolus infusion) was 6±2 mmHg and the “transient decrease in MAP” value ([2]; 30 μmoles·kg^−1 bolus infusion) was 8±3 mmHg. The “transient decrease in MAP” value ([2]; 60 μmoles·kg^−1 bolus infusion) was 14±0.3 mmHg, the “effects on HR or MAP (in words)” value ([2]; 10, 30 or 60 μmoles·kg^−1) was “concentration-dependent transient decrease in MAP” and the “period of return of MAP to baseline” value ([2]; after bolus infusion) was 10 min. The “HR, 10 μmol.kg^−1” value [2, 7] was 276 ± 20 bpm, the “MAP, 10 μmol.kg^−1” value [2, 7] was 73 ± 2 mmHg and the “HR, 30 μmol.kg^−1” value [2, 8] was 261 ± 22 bpm. For the same molecule, the “MAP, 30 μmol.kg^−1” value [2, 8] was 72 ± 7 mmHg, the “MAP, 60 μmol.kg^−1” value ([2]; directly after i.v. bolus 60 μmol/kg (cumulative 100)) was 65 ± 4* mmHg and the “HR, 60 μmol.kg^−1” value ([2]; directly after i.v. bolus 60 μmol/kg (cumulative 100), listed as Ru(CO)3Cl(glycinate)) was 253 ± 23 bpm. For the same molecule, the “HR, 60 μmol.kg^−1” value ([2]; directly after i.v. bolus 60 μmol/kg (cumulative 100), listed as Ru(CO)3Cl(glycinato)) was 253±23 bpm, the “MAP, Baseline” value ([2]; just before infusion of the compound) was 79 ± 2 mmHg and the “HR, Baseline” value ([2]; just before infusion of the compound, listed as Ru(CO)3Cl(glycinate)) was 270 ± 20 bpm. For the same molecule, the “HR, Baseline” value ([2]; just before infusion of the compound, listed as Ru(CO)3Cl(glycinato)) was 270±20 bpm, the “nitrite generation in LPS-stimulated macrophages” value (RAW 264.7 macrophages [3]) was “significantly attenuated nitrite generation in a concentration dependent manner” and the “survival time of transplanted hearts (in words)” value ([4]; vs. saline control) was “significantly prolonged”. The hearts still beating ([4]; 18 days after transplantation) was 100%, the “mice without any sign of rejection” value ([4]; 25 days after heart transplantation) was 60% and the “transplanted hearts still viable” value ([4]; at 30 days) was 40%. For the same molecule, the “MbCO formation / CO release when added directly to deoxy-Mb solution” value ([5]; listed as [Bu(CO)3(glycinate)Cl]) was “released CO”, the “MbCO formation / CO release when added directly to deoxy-Mb solution” value ([5]; listed as [Ru(CO)3(glycinato)Cl]) was “high release of CO” and the “vasodilatory effect on pre-contracted aortic rings (in words)” value ([6]; consecutive additions) was “elicited significant vasodilatation”. The “% Relaxation, 1st addition” value [6, 9] was 36%, the “% Relaxation, 2nd addition” value [6, 9] was 66.6% and the “% Relaxation, 3rd addition” value [6, 9] was 68.3%.
